Laboratory results reported in the supplement of paper PMC10307832.

Assays:
Assay in all cases: relative viability (nuclei count vs DMSO), 5 days (fraction); higher = more cells survive
Masitinib + Lapatinib = compound: Cc1ccc(NC(=O)c2ccc(CN3CCN(C)CC3)cc2)cc1Nc1nc(-c2cccnc2)cs1 [Masitinib] + CS(=O)(=O)CCNCc1ccc(-c2ccc3ncnc(Nc4ccc(OCc5cccc(F)c5)c(Cl)c4)c3c2)o1 [Lapatinib] (partner 2 µM)
Outline: (§1)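 Each reported value is a median over duplicate plates. It expresses relative viability: treated-well nuclei count divided by vehicle-well nuclei count. Lung cancer cell lines in 1536-well plates were dosed by pin tool a day after seeding, alone with one drug or with a fixed anchor-drug dose plus five library-drug doses (not always all listed) in √10 steps, and nuclei were counted after 5 days.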

Masitinib + AZD7762 = compound: Cc1ccc(NC(=O)c2ccc(CN3CCN(C)CC3)cc2)cc1Nc1nc(-c2cccnc2)cs1 [Masitinib] + NC(=O)Nc1cc(-c2cccc(F)c2)sc1C(=O)N[C@H]1CCCNC1 [AZD7762] (partner 0.2 µM)
Outline: as §1

Masitinib + Luminespib = compound: Cc1ccc(NC(=O)c2ccc(CN3CCN(C)CC3)cc2)cc1Nc1nc(-c2cccnc2)cs1 [Masitinib] + CCNC(=O)c1noc(-c2cc(C(C)C)c(O)cc2O)c1-c1ccc(CN2CCOCC2)cc1 [Luminespib] (partner 0.01 µM)
Outline: as §1

[1] = compound: CC1=CC(=CC=C1)NC2=NC(=CS2)C3=CC=NC=C3 + COc1cccc2cc(-c3nc([C@H]4CC[C@H](C(=O)O)CC4)n4ncnc(N)c34)[nH]c12 [OSI-027] (partner 0.5 µM)
Outline: as §1

| Cell Line | relative viability (Masitinib + Lapatinib; first compound 0.01 µM) | relative viability (Masitinib + Lapatinib; first compound 0.03162 µM) | relative viability (Masitinib + Lapatinib; first compound 0.1 µM) | relative viability (Masitinib + Lapatinib; first compound 0.3162 µM) | relative viability (Masitinib + Lapatinib; first compound 1 µM) | relative viability (Masitinib + AZD7762; first compound 0.01 µM) | relative viability (Masitinib + AZD7762; first compound 0.03162 µM) | relative viability (Masitinib + AZD7762; first compound 0.1 µM) | relative viability (Masitinib + AZD7762; first compound 0.3162 µM) | relative viability (Masitinib + AZD7762; first compound 1 µM) | relative viability (Masitinib + Luminespib; first compound 0.01 µM) | relative viability (Masitinib + Luminespib; first compound 0.03162 µM) | relative viability (Masitinib + Luminespib; first compound 0.1 µM) | relative viability (Masitinib + Luminespib; first compound 0.3162 µM) | relative viability (Masitinib + Luminespib; first compound 1 µM) | relative viability ([1]; first compound 0.08 µM) | relative viability ([1]; first compound 0.253 µM) | relative viability ([1]; first compound 0.8 µM) | relative viability ([1]; first compound 2.53 µM) | relative viability ([1]; first compound 8 µM) |
| --- | --- | --- | --- | --- | --- | --- | --- | --- | --- | --- | --- | --- | --- | --- | --- | --- | --- | --- | --- | --- |
| NCI-H1355 | 0.691 | 0.94 | 0.807 | 0.781 | 0.951 | 0.726 | 0.747 | 0.791 | 0.481 | 0.517 | 0.643 | 0.564 | 0.766 | 0.623 | 0.738 | 0.262 | 0.323 | 0.291 | 0.343 | 0.383 |
| NCI-H1395 | 1.37 | 1.16 | 1.39 | 0.982 | 0.81 | 0.379 | 0.416 | 0.392 | 0.405 | 0.378 | 0.626 | 0.682 | 0.864 | 0.506 | 0.611 | 0.555 | 0.567 | 0.663 | 0.505 | 0.638 |
| NCI-H1437 | 0.661 | 0.755 | 0.798 | 0.832 | 0.728 | 1.09 | 1.12 | 1.22 | 1.07 | 1.06 | 1.15 | 1.19 | 1.16 | 1.18 | 1.14 | 1.04 | 1.02 | 1.08 | 1.04 | 0.714 |
| NCI-H1651 | 0.831 | 0.849 | 0.829 | 0.908 | 0.854 | 0.49 | 0.523 | 0.485 | 0.475 | 0.471 | 0.823 | 1.23 | 0.822 | 0.75 | 0.769 | 0.71 | 0.649 | 0.77 | 0.75 | 0.737 |
| NCI-H1666 | 0.677 | 0.657 | 0.706 | 0.428 | 0.557 | 0.763 | 0.743 | 0.806 | 0.527 | 0.816 | – | 1.05 | 1.1 | 1.03 | 1.01 | 0.582 | 0.598 | 0.676 | 0.501 | 0.507 |
| NCI-H1734 | 0.915 | 0.956 | 1.02 | 0.85 | 1 | 0.595 | 0.515 | 0.599 | 0.599 | 0.545 | 0.194 | 0.195 | 0.188 | 0.187 | 0.172 | 0.481 | 0.554 | 0.654 | 0.7 | 0.618 |
| NCI-H1755 | – | 0.998 | 0.711 | 1.07 | 0.995 | 0.404 | 0.452 | 0.468 | 0.45 | 0.479 | – | 0.528 | 0.414 | 0.697 | 0.331 | 0.485 | 0.7 | 0.58 | 0.653 | 0.588 |
| NCI-H1792 | 0.721 | 0.405 | 0.874 | 0.846 | 0.995 | 0.733 | 0.502 | 0.611 | 0.39 | 0.547 | 0.341 | 0.206 | 0.41 | 0.397 | 0.402 | 0.541 | – | 0.613 | 0.443 | 0.401 |
| NCI-H1793 | 0.631 | 0.633 | 0.594 | 0.456 | 0.575 | 0.473 | 0.348 | 0.434 | 0.283 | 0.202 | 0.165 | 0.166 | 0.182 | 0.162 | 0.567 | 0.238 | 0.25 | 0.315 | 0.249 | 0.217 |
| NCI-H1915 | – | 1.06 | 0.678 | 1.06 | 0.984 | – | 0.734 | – | 0.747 | 0.718 | – | 0.815 | – | 0.938 | 0.896 | 0.598 | 0.61 | 0.602 | 0.575 | 0.587 |
| NCI-H1944 | – | 0.743 | 0.584 | 0.695 | 0.906 | – | 0.445 | – | 0.485 | 0.431 | – | 0.829 | – | 0.576 | 0.697 | 0.374 | 0.36 | 0.384 | 0.329 | 0.39 |
| NCI-H1975 | 0.941 | 0.876 | 0.992 | 0.824 | 0.828 | 0.707 | 0.665 | 0.884 | 0.434 | 0.546 | 0.246 | 0.287 | 0.22 | 0.156 | 0.124 | 0.699 | 0.653 | 0.628 | 0.483 | 0.267 |
| NCI-H1993 | 0.438 | – | 0.913 | 0.776 | 0.678 | 0.786 | 0.625 | 0.753 | 0.745 | 0.684 | 0.851 | 0.791 | 0.701 | 0.7 | 0.766 | 0.523 | 0.524 | 0.586 | 0.576 | 0.56 |
| NCI-H2085 | 0.732 | 0.736 | 0.839 | 0.703 | 0.664 | 0.872 | 0.915 | 0.819 | 0.893 | 0.886 | 0.368 | 0.428 | 0.423 | 0.403 | 0.443 | 0.7 | 0.614 | 0.598 | 0.613 | 0.522 |
| NCI-H2087 | 0.757 | 1.06 | 0.77 | 1.22 | 0.861 | 1.22 | 1.35 | 1.2 | 1.5 | 1.3 | 0.158 | 0.166 | 0.153 | 0.202 | 0.181 | 0.499 | 0.543 | 0.554 | 0.673 | 0.639 |
| NCI-H2126 | 0.773 | 0.724 | 0.734 | 0.662 | 0.769 | 0.884 | 1.07 | 0.97 | 0.973 | 1.11 | 0.888 | 1 | 0.951 | 0.89 | 0.794 | 0.608 | 0.582 | 0.674 | 0.631 | 0.651 |
| NCI-H2170 | 0.269 | 0.275 | 0.267 | 0.264 | 0.262 | 0.714 | 0.887 | 1.01 | 0.828 | 0.685 | 0.645 | 0.689 | 1.02 | 0.631 | 1.02 | 0.733 | 0.646 | 0.583 | 0.537 | 0.651 |
| NCI-H2347 | 0.826 | 0.911 | 0.821 | 0.833 | 0.948 | 0.853 | 0.733 | 0.675 | 0.647 | 0.73 | 0.758 | 0.299 | 0.41 | 0.556 | 0.326 | 0.362 | 0.328 | – | 0.419 | 0.411 |
| NCI-H2405 | 0.921 | 1.09 | 0.953 | 0.946 | 0.952 | 0.741 | 0.778 | 0.738 | 0.692 | 0.634 | 0.606 | 0.64 | 0.692 | 0.521 | 0.571 | 0.564 | 0.636 | 0.531 | 0.702 | 0.671 |
| NCI-H3122 | 1.01 | 1.04 | 1.02 | 1.04 | 1 | 0.797 | 0.994 | 0.993 | 0.921 | 0.984 | 0.109 | 0.0826 | 0.0942 | 0.109 | 0.0792 | 0.824 | 1.03 | 1.12 | 1.09 | 0.969 |
| PC-3 [JPC-3] | 0.474 | 0.416 | 0.462 | 0.367 | 0.422 | 0.785 | 0.873 | 0.837 | 0.645 | 0.642 | 0.741 | 0.571 | 0.774 | 0.783 | 0.677 | 0.651 | 0.659 | 0.599 | 0.607 | 0.594 |
| PC-14 | 0.286 | 0.314 | 0.315 | 0.185 | 0.309 | 0.349 | 0.242 | 0.384 | 0.366 | 0.235 | 0.15 | 0.222 | 0.246 | 0.151 | 0.196 | 0.712 | 0.833 | 0.795 | 0.826 | 0.702 |
| RERF-LC-KJ | 0.94 | 0.705 | 0.83 | 0.73 | 0.719 | 0.781 | 0.934 | 0.949 | 0.906 | 0.92 | 1.41 | 1.15 | 1.42 | 1.23 | 1.27 | 0.512 | 0.572 | 0.569 | 0.415 | 0.37 |
